Data reported in patent US8735584B2 (Merck Patent GmbH, priority 2008, dated 2014).

Assays:
Format in all cases: biochemical
[1] = molecular target: T1, Erk1 (Homo sapiens, UniProt P27361); test: Desktop Profiler kinase panel, Erk1; conditions: 10 micromolar concentration of the compound; read-out: Percent Inhibition Erk1
T1 construct: purchased Caliper Life Sciences
Method: (§1) The Aurora assays described here are performed on two Caliper Life Sciences systems: the LC3000 and the Desktop Profiler. These provide data on enzyme activity via measurement of the relative amounts of phosphorylated or unphosphorylated fluorescently labelled substrate peptide at the end of an enzymatic reaction. These different states of peptide are resolved by applying a potential difference across the sample. The presence of the charged phosphate group on the product (as opposed to the substrate) causes a different peptide mobility between the two peptides. This is visualized by excitation of the fluorescent label on the substrate and product peptides and represented as peaks within the analysis software.
(§2) The Desktop Profiler utilizes the same principle as the LC3000 for calculating percentage conversion of a substrate to product. Caliper Life Sciences provides proprietary flash frozen pre-made 384 well plates containing selected kinases. Each column in the 384 well plate contains a particular selected kinase. A second plate, the ‘substrate plate’ contains a mix of fluorescently labeled peptide substrate and ATP. […]
(§3) Reading of the plate in the Profiler is identical to the LC3000, and the ratio between substrate and product peaks provides the activity of the enzyme in that well. […]

[2] = molecular target: T2, AKT1 (Homo sapiens, UniProt P31749); test: Desktop Profiler kinase panel, AKT1; conditions: 10 micromolar concentration of the compound; read-out: Percent Inhibition AKT1
T2 construct: purchased Caliper Life Sciences
Method: as §1, §2, §3

[3] = molecular target: T3, LCK (Homo sapiens, UniProt P06239); test: Desktop Profiler kinase panel, LCK; conditions: 10 micromolar concentration of the compound; read-out: Percent Inhibition LCK
T3 construct: purchased Caliper Life Sciences
Method: as §1
(§4) The Desktop Profiler utilizes the same principle as the LC3000 for calculating percentage conversion of a substrate to product. Caliper Life Sciences provides proprietary flash frozen pre-made 384 well plates containing selected kinases. Each column in the 384 well plate contains a particular selected kinase. A second plate, the ‘substrate plate’ contains a mix of fluorescently labeled peptide substrate and ATP. These are arranged in columns so that transfer for substrate plate to enzyme plate provides the correct enzyme with the correct substrate/ATP concentration. Compounds are added to a thawed enzyme plate in the desired format, in single concentrations. Reactions are initiated by transfer of the substrate/ATP mix from the substrate plate. The enzyme plate is incubated for 90 mins at 25 C. The reaction is stopped by addition of 70 ul of Stop Buffer (100 mM HEPES pH 7.5, 0.015% Brij-35, 10 mM EDTA (Sigma, E7889)).
(§5) Reading of the plate in the Profiler is identical to the LC3000, and the ratio between substrate and product peaks provides the activity of the enzyme in that well. This is best represented by a plate heat map which colors each well by percent inhibition as compared to positive and negative controls (no inhibitors and no ATP respectively).
(§6) In the following Tables 3a-4-b, which show the results of the desktop profiler measurements, “+” means 50-70% inhibition, “++” means 70-90% inhibition, and “+++” means >90% inhibition. The enzymes tested for profiling were ABL, AKT1, AKT2, AurA, CHK1, CHK2, CK1d, Erk1, Erk2, FYN, GSK3b, INSR, LCK, LYN, MAPKAPK2, MET, MSK1, p38a, PKA, PKCz, PKD2, PRAK, RSK1 and SRC.

[4] = molecular target: T4, AurA (Homo sapiens, UniProt O14965); test: Desktop Profiler kinase panel, AurA; conditions: 10 micromolar concentration of the compound; read-out: Percent Inhibition AurA
T4 construct: purchased Caliper Life Sciences
T4 sequence (O14965 1-403): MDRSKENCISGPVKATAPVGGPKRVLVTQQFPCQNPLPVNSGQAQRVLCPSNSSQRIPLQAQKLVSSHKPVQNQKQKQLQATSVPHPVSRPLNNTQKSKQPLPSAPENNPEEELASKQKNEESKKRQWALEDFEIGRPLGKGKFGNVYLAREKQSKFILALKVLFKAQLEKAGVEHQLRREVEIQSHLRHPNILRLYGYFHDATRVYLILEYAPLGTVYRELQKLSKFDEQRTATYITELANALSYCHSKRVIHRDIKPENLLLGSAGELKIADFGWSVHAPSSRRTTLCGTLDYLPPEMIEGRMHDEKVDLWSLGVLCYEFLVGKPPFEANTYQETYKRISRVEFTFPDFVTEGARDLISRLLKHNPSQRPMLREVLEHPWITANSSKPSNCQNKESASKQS
Method: as §1, §4, §5, §6

[5] = molecular target: T5, PKD2 (Homo sapiens, UniProt Q9BZL6); test: Desktop Profiler kinase panel, PKD2; conditions: 10 micromolar concentration of the compound; read-out: Percent Inhibition PKD2
T5 construct: purchased Caliper Life Sciences
T5 sequence (Q9BZL6 1-878): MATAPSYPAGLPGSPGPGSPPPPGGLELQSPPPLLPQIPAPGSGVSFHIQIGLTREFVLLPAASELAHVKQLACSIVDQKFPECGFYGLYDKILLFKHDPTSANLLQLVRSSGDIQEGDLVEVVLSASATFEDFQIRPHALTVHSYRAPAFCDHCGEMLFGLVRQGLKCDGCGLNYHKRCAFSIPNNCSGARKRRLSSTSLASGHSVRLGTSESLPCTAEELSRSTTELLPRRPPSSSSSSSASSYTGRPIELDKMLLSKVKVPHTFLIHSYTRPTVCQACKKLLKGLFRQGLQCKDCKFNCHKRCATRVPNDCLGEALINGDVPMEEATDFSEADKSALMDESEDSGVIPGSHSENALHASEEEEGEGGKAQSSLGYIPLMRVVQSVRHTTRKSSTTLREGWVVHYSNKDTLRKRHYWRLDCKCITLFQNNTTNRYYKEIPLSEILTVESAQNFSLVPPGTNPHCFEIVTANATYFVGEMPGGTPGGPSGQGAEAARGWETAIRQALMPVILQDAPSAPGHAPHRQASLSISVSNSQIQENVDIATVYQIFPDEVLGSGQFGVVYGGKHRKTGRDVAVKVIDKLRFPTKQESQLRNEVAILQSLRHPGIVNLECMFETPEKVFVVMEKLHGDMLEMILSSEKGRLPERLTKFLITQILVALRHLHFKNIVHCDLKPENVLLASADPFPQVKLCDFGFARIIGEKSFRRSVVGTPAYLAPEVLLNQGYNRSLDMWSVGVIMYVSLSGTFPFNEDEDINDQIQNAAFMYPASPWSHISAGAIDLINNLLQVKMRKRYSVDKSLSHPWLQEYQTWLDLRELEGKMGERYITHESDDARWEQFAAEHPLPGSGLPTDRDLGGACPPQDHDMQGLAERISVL
Method: as §1, §4, §5, §6

[6] = molecular target: T6, Erk2 (Homo sapiens, UniProt P28482); test: Desktop Profiler kinase panel, Erk2; conditions: 10 micromolar concentration of the compound; read-out: Percent Inhibition Erk2
T6 construct: purchased Caliper Life Sciences
Method: as §1, §2, §3

[7] = molecular target: T7, MAPKAPK2 (Homo sapiens, UniProt P49137); test: Desktop Profiler kinase panel, MAPKAPK2; conditions: 10 micromolar concentration of the compound; read-out: Percent Inhibition MAPKAPK2
T7 construct: purchased Caliper Life Sciences
Method: as §1, §2, §3

[8] = molecular target: T8, PKCz (Homo sapiens, UniProt Q05513); test: Desktop Profiler kinase panel, PKCz; conditions: 10 micromolar concentration of the compound; read-out: Percent Inhibition PKCz
T8 construct: purchased Caliper Life Sciences
Method: as §1, §2, §3

[9] = molecular target: T9, MET (Homo sapiens, UniProt P08581); test: Desktop Profiler kinase panel, MET; conditions: 10 micromolar concentration of the compound; read-out: Percent Inhibition MET
T9 construct: purchased Caliper Life Sciences
Method: as §1, §2, §3

[10] = molecular target: T10, p38a (Homo sapiens, UniProt Q16539); test: Desktop Profiler kinase panel, p38a; conditions: 10 micromolar concentration of the compound; read-out: Percent Inhibition p38a
T10 construct: purchased Caliper Life Sciences
Method: as §1, §2, §3

T2 sequence (P31749 whole entry, species assumed): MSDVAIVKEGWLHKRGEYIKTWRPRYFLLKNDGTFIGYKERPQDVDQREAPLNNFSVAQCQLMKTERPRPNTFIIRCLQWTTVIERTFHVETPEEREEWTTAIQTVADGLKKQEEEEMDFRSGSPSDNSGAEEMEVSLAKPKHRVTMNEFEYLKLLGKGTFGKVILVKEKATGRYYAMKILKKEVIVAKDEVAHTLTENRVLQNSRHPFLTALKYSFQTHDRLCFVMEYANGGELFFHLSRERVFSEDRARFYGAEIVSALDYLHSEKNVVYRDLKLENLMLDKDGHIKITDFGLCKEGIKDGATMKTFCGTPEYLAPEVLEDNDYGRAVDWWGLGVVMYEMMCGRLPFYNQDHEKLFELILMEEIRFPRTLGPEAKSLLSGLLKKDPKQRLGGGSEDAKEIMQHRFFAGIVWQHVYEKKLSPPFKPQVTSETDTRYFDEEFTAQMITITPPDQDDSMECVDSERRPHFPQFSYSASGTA
T7 sequence (P49137 whole entry, species assumed): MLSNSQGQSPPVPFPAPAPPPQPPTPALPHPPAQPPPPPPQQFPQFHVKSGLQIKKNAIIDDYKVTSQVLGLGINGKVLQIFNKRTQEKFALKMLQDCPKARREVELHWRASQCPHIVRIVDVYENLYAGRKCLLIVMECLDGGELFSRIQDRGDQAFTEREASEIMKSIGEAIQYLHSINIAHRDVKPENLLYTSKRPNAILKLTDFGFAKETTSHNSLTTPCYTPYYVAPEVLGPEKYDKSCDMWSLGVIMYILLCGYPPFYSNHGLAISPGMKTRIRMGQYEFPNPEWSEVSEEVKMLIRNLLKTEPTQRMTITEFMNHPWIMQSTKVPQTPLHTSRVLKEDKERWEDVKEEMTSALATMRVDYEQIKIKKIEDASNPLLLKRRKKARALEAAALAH
T6 sequence (P28482 whole entry, species assumed): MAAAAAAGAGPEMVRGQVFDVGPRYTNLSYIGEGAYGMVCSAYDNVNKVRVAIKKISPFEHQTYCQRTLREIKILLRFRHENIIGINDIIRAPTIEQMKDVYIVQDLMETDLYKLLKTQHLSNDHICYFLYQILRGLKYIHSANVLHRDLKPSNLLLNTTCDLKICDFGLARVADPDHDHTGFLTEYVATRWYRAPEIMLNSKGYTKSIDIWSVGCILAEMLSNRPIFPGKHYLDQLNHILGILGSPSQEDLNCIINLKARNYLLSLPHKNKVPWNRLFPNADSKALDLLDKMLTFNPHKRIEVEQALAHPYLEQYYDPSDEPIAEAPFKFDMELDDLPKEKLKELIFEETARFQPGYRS
T3 sequence (P06239 whole entry, species assumed): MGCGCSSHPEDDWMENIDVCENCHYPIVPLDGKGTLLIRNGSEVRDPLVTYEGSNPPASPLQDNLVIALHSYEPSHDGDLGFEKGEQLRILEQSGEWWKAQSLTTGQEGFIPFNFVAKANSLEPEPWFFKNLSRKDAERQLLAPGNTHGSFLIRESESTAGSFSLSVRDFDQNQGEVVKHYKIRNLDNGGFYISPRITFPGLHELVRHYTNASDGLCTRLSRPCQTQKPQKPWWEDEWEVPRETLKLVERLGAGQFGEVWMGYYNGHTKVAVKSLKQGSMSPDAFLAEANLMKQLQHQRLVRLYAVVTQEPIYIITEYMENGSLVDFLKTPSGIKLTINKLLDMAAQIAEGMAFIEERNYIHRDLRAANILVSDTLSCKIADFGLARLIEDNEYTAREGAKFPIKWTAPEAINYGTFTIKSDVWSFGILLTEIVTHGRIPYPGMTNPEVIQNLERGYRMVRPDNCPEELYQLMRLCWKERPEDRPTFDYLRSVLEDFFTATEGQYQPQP
T1 sequence (P27361 whole entry, species assumed): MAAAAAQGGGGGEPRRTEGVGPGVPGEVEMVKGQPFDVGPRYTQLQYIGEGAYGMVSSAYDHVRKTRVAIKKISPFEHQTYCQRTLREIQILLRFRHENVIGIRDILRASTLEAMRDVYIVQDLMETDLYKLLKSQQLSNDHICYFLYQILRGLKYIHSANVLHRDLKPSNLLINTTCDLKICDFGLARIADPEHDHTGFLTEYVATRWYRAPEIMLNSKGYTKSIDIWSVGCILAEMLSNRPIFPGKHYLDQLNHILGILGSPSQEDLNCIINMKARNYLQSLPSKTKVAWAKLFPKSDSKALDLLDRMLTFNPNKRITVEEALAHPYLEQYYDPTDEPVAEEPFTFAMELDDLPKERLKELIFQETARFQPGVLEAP
T10 sequence (Q16539 whole entry): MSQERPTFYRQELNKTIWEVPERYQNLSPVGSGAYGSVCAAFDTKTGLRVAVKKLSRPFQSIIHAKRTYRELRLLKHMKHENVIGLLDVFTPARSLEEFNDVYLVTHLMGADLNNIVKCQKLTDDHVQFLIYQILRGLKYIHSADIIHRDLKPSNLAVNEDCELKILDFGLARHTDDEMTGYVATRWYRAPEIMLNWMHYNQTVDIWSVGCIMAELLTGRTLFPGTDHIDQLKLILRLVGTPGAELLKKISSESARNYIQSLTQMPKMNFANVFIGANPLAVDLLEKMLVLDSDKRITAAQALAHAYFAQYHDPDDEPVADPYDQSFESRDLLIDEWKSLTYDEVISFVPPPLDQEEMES
T9 sequence (P08581 25-1390): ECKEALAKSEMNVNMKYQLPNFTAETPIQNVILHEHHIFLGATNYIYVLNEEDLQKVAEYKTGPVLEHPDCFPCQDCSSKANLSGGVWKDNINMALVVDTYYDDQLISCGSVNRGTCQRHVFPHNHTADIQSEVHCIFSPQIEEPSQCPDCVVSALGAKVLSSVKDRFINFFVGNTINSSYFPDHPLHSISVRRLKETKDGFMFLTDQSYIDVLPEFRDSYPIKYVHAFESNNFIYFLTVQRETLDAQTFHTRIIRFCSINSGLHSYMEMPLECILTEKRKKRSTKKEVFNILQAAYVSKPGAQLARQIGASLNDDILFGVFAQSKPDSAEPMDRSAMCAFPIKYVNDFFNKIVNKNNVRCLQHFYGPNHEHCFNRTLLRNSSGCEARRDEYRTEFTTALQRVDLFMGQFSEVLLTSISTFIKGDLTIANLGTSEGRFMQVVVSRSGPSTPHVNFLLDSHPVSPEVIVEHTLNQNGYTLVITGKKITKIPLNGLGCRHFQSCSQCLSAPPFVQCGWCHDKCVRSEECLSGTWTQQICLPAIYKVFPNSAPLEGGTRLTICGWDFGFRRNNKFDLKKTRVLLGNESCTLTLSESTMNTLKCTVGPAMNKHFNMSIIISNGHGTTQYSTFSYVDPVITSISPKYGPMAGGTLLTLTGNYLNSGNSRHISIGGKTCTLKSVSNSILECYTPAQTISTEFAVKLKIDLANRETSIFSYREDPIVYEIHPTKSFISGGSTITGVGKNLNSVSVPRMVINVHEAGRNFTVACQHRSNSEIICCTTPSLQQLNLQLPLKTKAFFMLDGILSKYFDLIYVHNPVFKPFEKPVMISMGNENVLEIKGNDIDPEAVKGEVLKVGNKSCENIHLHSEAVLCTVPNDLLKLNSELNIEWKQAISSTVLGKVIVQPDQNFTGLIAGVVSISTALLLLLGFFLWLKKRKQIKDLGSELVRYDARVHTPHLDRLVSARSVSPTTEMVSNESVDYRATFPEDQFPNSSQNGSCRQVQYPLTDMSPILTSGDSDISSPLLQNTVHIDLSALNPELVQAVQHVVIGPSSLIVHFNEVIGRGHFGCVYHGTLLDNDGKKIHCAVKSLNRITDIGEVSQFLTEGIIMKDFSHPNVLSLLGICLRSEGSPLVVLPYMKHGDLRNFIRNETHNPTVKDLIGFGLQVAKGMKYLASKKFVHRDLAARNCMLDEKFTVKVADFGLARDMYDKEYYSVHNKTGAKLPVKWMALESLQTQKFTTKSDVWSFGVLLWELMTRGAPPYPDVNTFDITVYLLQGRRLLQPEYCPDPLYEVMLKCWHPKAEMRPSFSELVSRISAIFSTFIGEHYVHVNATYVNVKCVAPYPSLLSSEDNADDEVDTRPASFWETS
T8 sequence (Q05513 whole entry): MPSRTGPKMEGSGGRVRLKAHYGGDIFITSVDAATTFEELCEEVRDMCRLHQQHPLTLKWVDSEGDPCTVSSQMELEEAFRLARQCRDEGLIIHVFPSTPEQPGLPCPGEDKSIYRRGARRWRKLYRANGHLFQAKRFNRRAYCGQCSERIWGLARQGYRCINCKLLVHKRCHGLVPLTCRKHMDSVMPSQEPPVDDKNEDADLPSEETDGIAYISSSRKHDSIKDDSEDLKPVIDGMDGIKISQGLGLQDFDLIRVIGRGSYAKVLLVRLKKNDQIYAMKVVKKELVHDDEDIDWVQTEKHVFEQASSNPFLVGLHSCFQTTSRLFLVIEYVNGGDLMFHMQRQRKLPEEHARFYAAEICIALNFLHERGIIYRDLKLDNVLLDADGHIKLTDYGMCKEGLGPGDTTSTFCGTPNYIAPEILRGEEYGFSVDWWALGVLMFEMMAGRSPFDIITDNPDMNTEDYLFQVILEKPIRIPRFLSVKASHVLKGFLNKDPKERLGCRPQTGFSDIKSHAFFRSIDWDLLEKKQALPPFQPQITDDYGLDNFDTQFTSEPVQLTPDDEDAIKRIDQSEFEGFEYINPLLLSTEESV

SMILES | inhibition at 10 µM [1] | inhibition at 10 µM [2] | inhibition at 10 µM [3] | inhibition at 10 µM [4] | inhibition at 10 µM [5] | inhibition at 10 µM [6] | inhibition at 10 µM [7] | inhibition at 10 µM [8] | inhibition at 10 µM [9] | inhibition at 10 µM [10]
O=c1[nH]c2ncccc2c2cc(Nc3cccc(F)c3)ccc12 [Example 31, 9-(3-Fluoro-phenylamino)-5H-benzo[c][1,8]naphthyridin-6-one] | 70 to 90% | 70 to 90% | > 90% | > 90% | > 90% | 70 to 90% |  |  |  | 
CC(=O)Nc1ccc(Oc2ccc3c(=O)[nH]c4ncccc4c3c2)cc1 [Example 81, N-[4-(6-Oxo-5,6-dihydro-benzo[c][1,8]naphthyridin-9-yloxy)-phenyl]-acetamide] | 70 to 90% | > 90% | > 90% | > 90% | > 90% | 70 to 90% | 50 to 70% | 50 to 70% | > 90% | 50 to 70%
NC(=O)c1ccc(Oc2ccc3c(=O)[nH]c4ncccc4c3c2)cc1 [Example 82] |  |  |  | > 90% | 50 to 70% |  | > 90% |  |  | 
